Experiment: recombinant barcode read abundance after kanamycin selection (control-corrected) (log10(CPM+1)); higher = more efficient recombination; sequences stand for … in AGTGCAGAGAAAATCGGCCAGTTTTCTCTGCCTGCAGTCCGCATGCCGT…AGATTTATGCAGCGGACTGCCTTTCTCCCAAAGTGATAAACCGGACAGTATCATGGACCGGTTTTCCCGGTAATCCGTATTTGCAAGGTTGGTTTCACT; site = the 11-nt target
Outline: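 Recombination efficiency draws on barcodes counted at recombinant junctions in a pooled E. coli screen of targets paired with IS621 bridge RNA target-binding loops. The counts were converted to counts per million, averaged and corrected against the chloramphenicol/ampicillin LB agar control, then reported as log10(CPM+1). Selection plates held chloramphenicol/ampicillin/kanamycin with 0.1 mM IPTG, with two replicates per condition.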
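Also: IS621 recombinase and bridge RNA in Escherichia coli cells.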

First: TGGTATGCTTGGGTTCTAACCTGTTGCCT (site TGGTATACTAG)
Second: TGGTATGCTTGGGTTCTAACCTGTTGCCT (site TGGTATCCTAG)
The “recombinant barcode read abundance (log10)” value of the first is higher: 0.5 for the first, 0.0685 for the second.

Going from “TGGTATGCTTGGGTTCTAACCTGTTGCCT (site TGGTATGCTAG)” to “TGGTATGCTTGGGTTCTAACCTGTTGCCT (site TGGTATTCTAG)”, the “recombinant barcode read abundance (log10)” value falls from 1.39 to 0.

“TGGTCTACTTGGGTTCTAACCTGTTGCTT (site TGATCTACTAA)” and “TGGTCTACTTGGGTTCTAACCTGTTGCTT (site TGCTCTACTAA)” are within 0.2 log units of each other in “recombinant barcode read abundance (log10)” value: 0 for the first, 0.0743 for the second.

“TGGTCTACTTGGGTTCTAACCTGTTGCTT (site TGGTCTACTAA)” and “TGGTCTACTTGGGTTCTAACCTGTTGCTT (site TGTTCTACTAA)” are within 0.2 log units of each other in “recombinant barcode read abundance (log10)” value: 0.154 for the first, 0.0113 for the second.

“TGGTTCGCTTGGGTTCTAACCTGTTGCCT (site TGGTACGCTAG)” and “TGGTTCGCTTGGGTTCTAACCTGTTGCCT (site TGGTCCGCTAG)” are within 0.2 log units of each other in “recombinant barcode read abundance (log10)” value: 0.0339 for the first, 0.0365 for the second.

First: TGGTTCGCTTGGGTTCTAACCTGTTGCCT (site TGGTGCGCTAG)
Second: TGGTTCGCTTGGGTTCTAACCTGTTGCCT (site TGGTTCGCTAG)
The “recombinant barcode read abundance (log10)” value of the first is lower: 0.0185 for the first, 1.43 for the second.

“TGTAATACTTGGGTTCTAACCTGTTGCCT (site TGTAATACTAG)” and “TGTAATACTTGGGTTCTAACCTGTTGCCT (site TGTAATCCTAG)” are within 0.2 log units of each other in “recombinant barcode read abundance (log10)” value: 0.0354 for the first, 0.0997 for the second.

“TGTAATACTTGGGTTCTAACCTGTTGCCT (site TGTAATGCTAG)” and “TGTAATACTTGGGTTCTAACCTGTTGCCT (site TGTAATTCTAG)” are within 0.2 log units of each other in “recombinant barcode read abundance (log10)” value: 0.147 for the first, 0.121 for the second.

Compared with “TGTACCTCTTGGGTTCTAACCTGTTGCCT (site TGTACCTCTAG)”, “TGTACCTCTTGGGTTCTAACCTGTTGCCT (site TGTCCCTCTAG)” is lower in “recombinant barcode read abundance (log10)” value: 0.522 for the first, 0.00782 for the second.

“TGTACCTCTTGGGTTCTAACCTGTTGCCT (site TGTGCCTCTAG)” and “TGTACCTCTTGGGTTCTAACCTGTTGCCT (site TGTTCCTCTAG)” are within 0.2 log units of each other in “recombinant barcode read abundance (log10)” value: 0.0235 for the first, 0.0524 for the second.

“TGTACGCCTTGGGTTCTAACCTGTTGCCT (site GAGGTAACTGT)” and “TGTACGCCTTGGGTTCTAACCTGTTGCCT (site TGTACGCCTAG)” are within 0.2 log units of each other in “recombinant barcode read abundance (log10)” value: 0.0511 for the first, 0.0173 for the second.

“TGTAGGACTTGGGTTCTAACCTGTTGCCT (site AGTAGGACTAG)” and “TGTAGGACTTGGGTTCTAACCTGTTGCCT (site CGTAGGACTAG)” are within 0.2 log units of each other in “recombinant barcode read abundance (log10)” value: 0.0549 for the first, 0.142 for the second.

Compared with “TGTAGGACTTGGGTTCTAACCTGTTGCCT (site GGTAGGACTAG)”, “TGTAGGACTTGGGTTCTAACCTGTTGCCT (site TGTAGGACTAG)” is higher in “recombinant barcode read abundance (log10)” value: 0.0264 for the first, 0.553 for the second.

Going from “TGTAGTCCTTGGGTTCTAACCTGTTGCGT (site TGTAGTCCTAA)” to “TGTAGTCCTTGGGTTCTAACCTGTTGCGT (site TGTAGTCCTAC)”, the “recombinant barcode read abundance (log10)” value rises from 0.062 to 1.19.

First: TGTAGTCCTTGGGTTCTAACCTGTTGCGT (site TGTAGTCCTAG)
Second: TGTAGTCCTTGGGTTCTAACCTGTTGCGT (site TGTAGTCCTAT)
The “recombinant barcode read abundance (log10)” value of the first is higher: 0.293 for the first, 0.0925 for the second.

First: TGTCCCGCTTGGGTTCTAACCTGTTGCCT (site TGTATCGCTAG)
Second: TGTCCCGCTTGGGTTCTAACCTGTTGCCT (site TGTCCCGCTAG)
The “recombinant barcode read abundance (log10)” value of the first is lower: 0.0575 for the first, 0.708 for the second.

First: TGTCCCTCTTGGGTTCTAACCTGTTGCCT (site TGTACCTCTAG)
Second: TGTCCCTCTTGGGTTCTAACCTGTTGCCT (site TGTCCCTCTAG)
The “recombinant barcode read abundance (log10)” value of the first is lower: 0.014 for the first, 0.769 for the second.

“TGTCCCTCTTGGGTTCTAACCTGTTGCCT (site TGTGCCTCTAG)” and “TGTCCCTCTTGGGTTCTAACCTGTTGCCT (site TGTTCCTCTAG)” are within 0.2 log units of each other in “recombinant barcode read abundance (log10)” value: 0.111 for the first, 0.0962 for the second.

Source: the supplement of paper PMC11208160
